Laboratory results from US9556226B2, “Peptides with antifungal activity and methods of using the peptides” (THE BOARD OF TRUSTEES OF THE UNIVERSITY OF ARKANSAS, priority 2013, dated 2017).
Values after ≈ are worked out from the molar mass of the structure shown. Like-named read-outs stand apart in the source and are kept apart here. Bridge positions count the residues as written; N and C are the ends. Square brackets hold non-standard residues; d marks the D form. Peptide text beside a SMILES is read from it. I, II: the chains in the order shown.

Tests used:
Candida albicans SC5314 [1] = type: cell-based; conditions: for percent of C. albicans killed at 5 μM concentration: SC5314, 5
Experimental: Killing assays. The fungicidal activity of the peptides toward Candida albicans was examined by microdilution plate assay as described previously (13). Briefly, from a fresh overnight cultured plate, a single colony was inoculated and diluted in 1 ml of 10 mM sodium phosphate buffer at pH 7.4. Once cell counts had been confirmed by using a hemocytometer, the cells diluted within the same buffer at 1.8×10^5 cells/mil. Cell suspensions of 20 μl were mixed with 20 μl of peptide, which were dissolved in 10 mM sodium phosphate buffer at pH 7.4, and then incubated for 2 hours at 37° C. with shaking at speeds of 550 rpm. The reactions were stopped by the addition of 360 μl yeast nitrogen base (YNB) and then 40 μl of cell suspension was spread onto plates and incubated for 24 hours at 37° C. Sabouraud dextrose agar plates were used for C. albicans killing assay. The number of colony-forming units (CFUs) was counted and each assay was repeated in triplicate. Loss of viability was calculated as [1-(colonies from suspension with peptide/colonies from suspension with no peptide)]×100. For the respiratory activity experiments, Candida albicans was grown in the presence of sodium azide or antimycin A (Sigma Aldrich) before the killing assay was performed.

CD1 mice = test: Acute toxicity testing in CD1 mice (up-down protocol); type: in vivo; conditions: 8 mg/kg, IV, in PBS, CD1 mice
Experimental: To evaluate acute toxicity in animals, CD1 outbred mice were injected via tail vein with either KM12 or KM14 using a standard up-down concentration protocol and observed for any symptoms consistent with the toxicity of the peptides (Table 4). Mice were initially injected with KM12 or KM14 at a concentration of 8 mg/kg. […] Thus the KM12 peptide was deemed safe for animals at concentrations up to 10 mg/kg and the use of 5% glucose versus phosphate-buffered saline was deemed safer for administration to the animals. We will continue to evaluate acute toxicity with other KM peptides (i.e. KM23 and KM29) that show excellent promise as antifungal compounds. In addition, we plan to evaluate these peptides for treatment of superficial mucosal infections with Candida species.
Animal Studies: For the animal studies, CD-1 mice of 8-25 grams were injected with the antifungal peptides dissolved in either phosphate-buffered saline or 5% glucose. Peptide concentrations used for the injection of mice were chosen using a standard up-down protocol starting at 8 mg/kg. Peptides were injected into mice intravenously, intramuscularly, or intraperitoneally as indicated. The mice were closely monitored lbr signs of distress after injection. After two hours of continuous monitoring, the mice were evaluated daily for two weeks and necropsies performed after two weeks. For evaluating the immunogenicity of the peptides, mice were injected with peptides at a concentration of 10 mg/kg in 5% glucose. The routes of injection were intravenous, intramuscular, or intraperitoneal. Five mice were injected with the peptide per route of injection. The mice were injected with the same dose of peptide once per month for four months. The mice were monitored for signs of distress after each injection. At the end of the fifth month, the mice were euthanized by an overdose of anesthesia and the serum was collected from each mouse individually as assay for activity against the peptide using dot blots.

Candida albicans SC5314 [2] = test: Minimum inhibitory concentration (MIC) assay with resazurin; type: cell-based; conditions: 0.125X RPMI medium, range of three independent experiments
Excerpt: (§1) Minimum Inhibitory Concentration Assays: MIC assays were used to evaluate the minimum concentration of each antifungal peptide that would lead to 100% inhibition of growth. In the MIC assay, the colorimetric indicator, resazurin, is used to evaluate cell growth. Resazurin turns pink after reduction by living cells, indicating active cell growth. The unchanged blue color indicated no active cell growth. Colorimetric MIC end-points are interpreted as the lowest drug concentration that remained blue. The lowest dilution that changed from blue to slightly purple is indicative of significant cell growth inhibition; whereas a pink color indicates no growth inhibition. Each individual Candida species was assayed a minimum of three times and the results represent the range of MIC values obtained. The MIC assay was performed as described by the National Committee for Clinical Laboratory Standards M27-A, except we include resazurin as an indicator dye rather than visual inspection and the […] tissue culture medium was used at 0.125× concentration for our assays.

[3] = system: Candida glabrata ATCC90030; test: as above; type: cell-based; conditions: 0.125X RPMI medium, range of three independent experiments
Excerpt: as §1

Candida kefyr ATCC4135 = test: as above; type: cell-based; conditions: 0.125X RPMI medium, range of three independent experiments
Excerpt: as §1

Candida krusel ATCC6258 = test: as above; type: cell-based; conditions: 0.125X RPMI medium, range of three independent experiments
Excerpt: as §1

[4] = system: Candida lucitaniae ATCC200951; test: as above; type: cell-based; conditions: 0.125X RPMI medium, range of three independent experiments
Excerpt: as §1

[5] = system: Candida tropicalis ATCC750; test: as above; type: cell-based; conditions: 0.125X RPMI medium, range of three independent experiments
Excerpt: as §1

CC(=O)N[C@@H](Cc1ccccc1)C(=O)N[C@@H](CCCCN)C(=O)N[C@@H](CCCNC(=N)N)C(=O)N[C@@H](CCCCN)C(=O)N[C@@H](Cc1ccc(O)cc1)C(N)=O [KM5, F-K-R-K-Y] (Ac-FKRKY-NH2)
Percent killing activity at 25 μM concentration (Candida albicans SC5314 [1]; 25 μM peptide, Candida albicans SC5314): 85% | LD50 (dose of peptide required to achieve 50% killing) (Candida albicans SC5314 [1]; Candida albicans SC5314, 2 hours at 37° C., calculated using a linear regression equation): 5 µM

CC(=O)N[C@H](Cc1ccccc1)C(=O)N[C@H](CCCCN)C(=O)N[C@H](CCCNC(=N)N)C(=O)N[C@H](CCCCN)C(=O)N[C@H](Cc1ccc(O)cc1)C(N)=O [KM6, dF-dK-dR-dK-dY] (Ac-[dF][dK][dR][dK][dY]-NH2)
antifungal activity relative to comparator peptides (in words) (Candida albicans SC5314 [1]; Candida albicans SC5314): equivalent antifungal activity

CC(=O)N[C@@H](Cc1ccccc1)C(=O)N[C@@H](CCCCN)C(=O)N1CCC[C@H]1C(=O)N[C@@H](CCCCN)C(=O)N[C@@H](Cc1ccc(O)cc1)C(N)=O [KM7, FKPKY] (Ac-FKPKY-NH2)
Percent killing activity at 25 μM concentration (Candida albicans SC5314 [1]; SC5314, 25): 3%

CC(=O)N[C@@H](Cc1ccccc1)C(=O)N[C@@H](CCCCN)C(=O)N[C@@H](CO)C(=O)N[C@@H](CCCCN)C(=O)N[C@@H](Cc1ccc(O)cc1)C(N)=O [KM8, FKSKY] (Ac-FKSKY-NH2)
Percent killing activity at 25 μM concentration (Candida albicans SC5314 [1]; SC5314, 25): 0%

CC(=O)N[C@@H](Cc1ccccc1)C(=O)N[C@@H](CCCCN)C(=O)N[C@@H](CCCNC(=N)N)C(=O)N[C@@H](CCCCN)C(=O)N[C@@H](Cc1ccccc1)C(N)=O [KM9, FKRKF] (Ac-FKRKF-NH2)
Percent killing activity at 25 μM concentration (Candida albicans SC5314 [1]; SC5314, 25): 70%

CC(=O)N[C@@H](CCCCN)C(=O)N[C@@H](Cc1ccccc1)C(=O)N[C@@H](CCCNC(=N)N)C(=O)N[C@@H](Cc1ccc(O)cc1)C(=O)N[C@@H](CCCCN)C(N)=O [KM10, KFRYK] (Ac-KFRYK-NH2)
Percent killing activity at 25 μM concentration (Candida albicans SC5314 [1]; SC5314, 25): 55%

CC(=O)N[C@@H](CS)C(=O)N[C@@H](Cc1ccccc1)C(=O)N[C@@H](CCCCN)C(=O)N[C@@H](CCCNC(=N)N)C(=O)N[C@@H](CCCCN)C(=O)N[C@@H](Cc1ccc(O)cc1)C(N)=O [KM11, C-F-K-R-K-Y] (Ac-CFKRKY-NH2)
antifungal activity relative to comparator peptides (in words) (Candida albicans SC5314 [1]; Candida albicans SC5314): did not alter its antifungal activity | Percent killing activity at 25 μM concentration (Candida albicans SC5314 [1]; SC5314, 25): 95%

CC(=O)N[C@@H](CSSC[C@H](NC(C)=O)C(=O)N[C@@H](Cc1c[nH]c2ccccc12)C(=O)N[C@@H](CCCCN)C(=O)N[C@@H](CCCNC(=N)N)C(=O)N[C@@H](CCCCN)C(=O)N[C@@H](Cc1c[nH]c2ccccc12)C(N)=O)C(=O)N[C@@H](Cc1c[nH]c2ccccc12)C(=O)N[C@@H](CCCCN)C(=O)N[C@@H](CCCNC(=N)N)C(=O)N[C@@H](CCCCN)C(=O)N[C@@H](Cc1c[nH]c2ccccc12)C(N)=O [KM14, W-K-R-K-W-C-----C-W-K-R-K-W]
signs observed on tested animals (CD1 mice): immediate death

CC(=O)N[C@@H](Cc1ccccc1)C(=O)N[C@@H](CCCCN)C(=O)N[C@@H](CSSC[C@H](NC(=O)[C@H](CCCCN)NC(=O)[C@H](Cc1ccccc1)NC(C)=O)C(=O)N[C@@H](CCCNC(=N)N)C(=O)N[C@@H](CCCCN)C(=O)N[C@@H](Cc1ccc(O)cc1)C(N)=O)C(=O)N[C@@H](CCCNC(=N)N)C(=O)N[C@@H](CCCCN)C(=O)N[C@@H](Cc1ccc(O)cc1)C(N)=O [KM16, F-K-C-R-K-Y] (I: Ac-FKCRKY-NH2 / II: Ac-FKCRKY-NH2; disulfide I:3-II:3)
antifungal activity relative to comparator peptides (in words) (Candida albicans SC5314 [1]; Candida albicans SC5314): very promising antifungal activity compatible with that of KM12 and KM14 | percent of C. albicans killed at 5 μM concentration (Candida albicans SC5314 [1]): > 90%

CC(=O)N[C@H]1CSSC[C@@H](C(N)=O)NC(=O)[C@H](Cc2ccc(O)cc2)NC(=O)[C@H](CCCCN)NC(=O)[C@H](CCCNC(=N)N)NC(=O)[C@H](CCCCN)NC(=O)[C@H](Cc2ccccc2)NC1=O [KM17, C-F-K-R-K-Y-C] (Ac-CFKRKYC-NH2; disulfide 1-7)
antifungal activity relative to comparator peptides (in words) (Candida albicans SC5314 [1]; Candida albicans SC5314): very promising antifungal activity compatible with that of KM12 and KM14 | percent of C. albicans killed at 5 μM concentration (Candida albicans SC5314 [1]): > 90%

CC(=O)N[C@@H](Cc1ccc(O)cc1)C(=O)N[C@@H](CCCCN)C(=O)N[C@@H](CCCNC(=N)N)C(=O)N[C@@H](CCCCN)C(=O)N[C@@H](Cc1ccccc1)C(=O)N[C@@H](Cc1ccccc1)C(=O)N[C@@H](CCCCN)C(=O)N[C@@H](CCCNC(=N)N)C(=O)N[C@@H](CCCCN)C(=O)N[C@@H](Cc1ccc(O)cc1)C(N)=O [KM23, Y-K-R-K-F-F-K-R-K-Y] (Ac-YKRKFFKRKY-NH2)
LD50 in killing assays (Candida albicans SC5314 [1]; Candida albicans SC5314): 62.5 nM | MIC (Candida albicans SC5314 [2]): 4.7 µg/mL (≈ 3.12 µM) | MIC [3]: 75.4 µg/mL (≈ 50.1 µM) | MIC (Candida kefyr ATCC4135): 1.2 to 4.7 µg/mL | MIC (Candida krusel ATCC6258): 4.7 µg/mL (≈ 3.12 µM) | MIC [4]: 2.4 µg/mL (≈ 1.59 µM) | MIC [5]: 2.4 to 4.7 µg/mL

CC(=O)N[C@@H](Cc1ccc(O)cc1)C(=O)N[C@@H](CCCCN)C(=O)N[C@@H](CCCNC(=N)N)C(=O)N[C@@H](CCCCN)C(=O)N[C@@H](Cc1ccccc1)C(=O)N[C@@H](CCCCN)C(=O)N[C@@H](CCCNC(=N)N)C(=O)N[C@@H](CCCCN)C(=O)N[C@@H](Cc1ccc(O)cc1)C(N)=O [KM29, Y-K-R-K-F-K-R-K-Y] (Ac-YKRKFKRKY-NH2)
LD50 in killing assays (Candida albicans SC5314 [1]; Candida albicans SC5314): 62.5 nM | MIC (Candida albicans SC5314 [2]): 4.2 to 8.4 µg/mL | MIC [3]: 67.5 µg/mL (≈ 49.7 µM) | MIC (Candida kefyr ATCC4135): 2.1 to 4.3 µg/mL | MIC (Candida krusel ATCC6258): 4.2 µg/mL (≈ 3.09 µM) | MIC [4]: 2.1 to 4.2 µg/mL | MIC [5]: 2.1 to 4.2 µg/mL
